US10800792B2, “Inhibitors of Bruton's tyrosine kinase and method of their use” (JANSSEN PHARMACEUTICA NV, priority 2015, dated 2020)

Molecular target: unphosphorylated-BTK kinase domain (UP-BTK), GST-tagged human BTK (389-659aa) (Homo sapiens (Human), UniProt Q06187)
Test: BTK kinase Lanthascreen binding assay
Conditions: Lanthascreen tracer competition, 60 minutes incubation; pIC50 = negative log of the IC50 in molar
Summary of the method: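 Compound binding to the unphosphorylated kinase domain was monitored by displacement of a fluorescently labelled tracer in a Lanthascreen format. Potency is given as pIC50, the negative log of the molar IC50.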

Chain of unphosphorylated-BTK kinase domain (UP-BTK), GST-tagged human BTK (389-659aa) (Q06187 389-659): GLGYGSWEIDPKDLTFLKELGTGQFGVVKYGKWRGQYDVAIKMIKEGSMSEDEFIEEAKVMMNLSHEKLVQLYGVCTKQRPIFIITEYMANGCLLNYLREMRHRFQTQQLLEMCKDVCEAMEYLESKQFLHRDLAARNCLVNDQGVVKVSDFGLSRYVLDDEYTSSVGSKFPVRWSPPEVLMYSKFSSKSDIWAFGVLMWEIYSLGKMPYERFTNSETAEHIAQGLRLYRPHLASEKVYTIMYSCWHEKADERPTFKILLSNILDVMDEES

| Structure (SMILES) | BTK_I_binding pIC50 |
| --- | --- |
| C=CC(=O)N1CCC[C@@H](NC(=O)c2sc3nccc4c3c2NC(=O)N4c2ccnc(-c3ccccn3)c2)C1 [Example 709, (R)-5-([2,2′-Bipyridin]-4-yl)-N-(1-acryloylpiperidin-3-yl)-4-oxo-4,5-dihydro-3H-1-thia-3,5,8-triazaacenaphthylene-2-carboxamide] | 6.7 |
| C=CC(=O)N1CCC[C@@H](NC(=O)c2sc3nccc4c3c2NC(=O)N4c2ccc(S(=O)(=O)C(C)(C)C)cc2)C1 [Example 641, (R)—N-(1-Acryloylpiperidin-3-yl)-5-(4-(tert-butylsulfonyl)phenyl)-4-oxo-4,5-dihydro-3H-1-thia-3,5,8-triazaacenaphthylene-2-carboxamide] | 5.6 |
| Cc1cc(Oc2ccccc2)ccc1N1C(=O)Nc2c(C(=O)N[C@@H]3CCN(C(=O)CC#N)C3)sc3nccc1c23 [Example 838, (R)—N-(1-(2-Cyanoacetyl)pyrrolidin-3-yl)-5-(2-methyl-4-phenoxyphenyl)-4-oxo-4,5-dihydro-3H-1-thia-3,5,8-triazaacenaphthylene-2-carboxamide] | 7.9 |
| CC(C)c1cccc(N2C(=O)Nc3c(C(=O)N[C@@H]4CCCNC4)sc4nccc2c34)c1 [Example 630, (R)-5-(3-Isopropylphenyl)-4-oxo-N-(piperidin-3-yl)-4,5-dihydro-3H-1-thia-3,5,8-triazaacenaphthylene-2-carboxamide] | 5.9 |
| C=CC(=O)N1CCC[C@@H](NC(=O)c2sc3nccc4c3c2NC(=O)N4c2cccc(C3COC3)c2)C1 [Example 632, (R)—N-(1-Acryloylpiperidin-3-yl)-5-(3-(oxetan-3-yl)phenyl)-4-oxo-4,5-dihydro-3H-1-thia-3,5,8-triazaacenaphthylene-2-carboxamide] | 5.9 |
| C=CC(=O)N1CC[C@@H](NC(=O)c2sc3nccc4c3c2NC(=O)N4c2ccc(Oc3cccc(COc4ccccc4C#N)c3)cc2C)C1 [Example 847, (R)—N-(1-Acryloylpyrrolidin-3-yl)-5-(4-(3-((2-cyanophenoxy)methyl)phenoxy)-2-methylphenyl)-4-oxo-4,5-dihydro-3H-1-thia-3,5,8-triazaacenaphthylene-2-carboxamide] | 7.6 |

Same assay, conditions: Lanthascreen tracer competition, 60 minutes incubation; pIC50 = negative log of the IC50 in molar; read-out: BTK_I_binding pIC50 (converted)

| Structure (SMILES) | IC50 [nM] |
| --- | --- |
| Cc1cc(N2C(=O)Nc3c(C(=O)N[C@@H]4CCCNC4)sc4nccc2c34)cc(-c2ccccc2)n1 [Example 735, (R)-5-(2-Methyl-6-phenylpyridin-4-yl)-4-oxo-N-(piperidin-3-yl)-4,5-dihydro-3H-1-thia-3,5,8-triazaacenaphthylene-2-carboxamide] | > 1000 |
| O=C(N[C@@H]1CCCNC1)c1sc2nccc3c2c1NC(=O)N3c1cccc(OC2CCCC2)c1 [Example 613, (R)-5-(3-(Cyclopentyloxy)phenyl)-4-oxo-N-(piperidin-3-yl)-4,5-dihydro-3H-1-thia-3,5,8-triazaacenaphthylene-2-carboxamide] | 794 |

Same assay, conditions: pIC50 = negative log of the IC50 in molar; 60 minutes incubation, 50 nM Tracer 236

| Structure (SMILES) | BTK_I_binding pIC50 |
| --- | --- |
| Cc1cc(Oc2ccccc2)ccc1N1C(=O)Nc2c(C(=O)NC[C@H]3CCCN3)sc3nccc1c23 [Example 276, (R)-5-(2-Methyl-4-phenoxyphenyl)-4-oxo-N-(pyrrolidin-2-ylmethyl)-4,5-dihydro-3H-1-thia-3,5,8-triazaacenaphthylene-2-carboxamide] | 6.3 |
| Cc1cccc(Oc2ccc(N3C(=O)Nc4c(C(=O)N[C@@H]5CCCN(C)C5)sc5nccc3c45)c(C)c2)c1 [Example 210, (R)-5-(2-Methyl-4-(m-tolyloxy)phenyl)-N-(1-methylpiperidin-3-yl)-4-oxo-4,5-dihydro-3H-1-thia-3,5,8-triazaacenaphthylene-2-carboxamide] | 6.7 |
| COCCNC(C)(C)C=C(C#N)C(=O)N1CCC[C@@H](NC(=O)c2sc3nccc4c3c2NC(=O)N4c2ccc(Oc3ccccc3)cc2C)C1 (mixture of isomers) [Example 234, (R,EZ)—N-(1-(2-Cyano-4-((2-methoxyethyl)amino)-4-methylpent-2-enoyl)piperidin-3-yl)-5-(2-methyl-4-phenoxyphenyl)-4-oxo-4,5-dihydro-3H-1-thia-3,5,8-triazaacenaphthylene-2-carboxamide] | 7.2 |
| C=C(C(=O)N1CCC[C@@H](NC(=O)c2sc3nccc4c3c2NC(=O)N4c2ccc(Oc3ccccc3)cc2C)C1)C(F)(F)F [Example 144, (R)-5-(2-Methyl-4-phenoxyphenyl)-4-oxo-N-(1-(2-(trifluoromethyl)acryloyl)piperidin-3-yl)-4,5-dihydro-3H-1-thia-3,5,8-triazaacenaphthylene-2-carboxamide] | 7.5 |
| Cc1cc(Oc2ccccc2)ccc1N1C(=O)Nc2c(C(=O)N[C@@H]3CCCN(C(=O)[C@@H]4CCNC4)C3)sc3nccc1c23 [Example 191, 5-(2-Methyl-4-phenoxyphenyl)-4-oxo-N—((R)-1-((R)-pyrrolidine-3-carbonyl)piperidin-3-yl)-4,5-dihydro-3H-1-thia-3,5,8-triazaacenaphthylene-2-carboxamide] | 7.1 |

Same assay, conditions: pIC50 = negative log of the IC50 in molar; 60 minutes incubation, 50 nM Tracer 236; read-out: BTK_I_binding pIC50 (converted)

| Structure (SMILES) | IC50 [nM] |
| --- | --- |
| COc1ccc(N2C(=O)Nc3c(C(=O)N[C@@H]4CCCN(C(=O)/C(C#N)=[13CH]/C5CC5)C4)sc4nccc2c34)c(C)c1 [Example 177, ^13C—(R,E)-N-(1-(2-Cyano-3-cyclopropylacryloyl)piperidin-3-yl)-5-(4-methoxy-2-methylphenyl)-4-oxo-4,5-dihydro-3H-1-thia-3,5,8-triazaacenaphthylene-2-carboxamide] | 39.8 |

Same assay, conditions: unphosphorylated-BTK kinase domain, 50 nM Tracer 236, 60 minutes; pIC50 = negative log of the IC50 in molar

| Structure (SMILES) | BTK_I_binding pIC50 |
| --- | --- |
| COC(C)(C)/C=C(\C#N)C(=O)N1CCC[C@@H](NC(=O)c2sc3nccc4c3c2NC(=O)N4c2ccc(Oc3ccccc3)cc2C)C1 (single isomer, unassigned) [Example 450, (R,*E)-N-(1-(2-Cyano-4-methoxy-4-methylpent-2-enoyl)piperidin-3-yl)-5-(*S)-(2-methyl-4-phenoxyphenyl)-4-oxo-4,5-dihydro-3H-1-thia-3,5,8-triazaacenaphthylene-2-carboxamide] | 7.6 |
| C=CS(=O)(=O)N1CC[C@@H](NC(=O)c2sc3nccc4c3c2NC(=O)N4c2ccc(Oc3ccccc3)cc2C)C1 [Example 369, (R)-5-(2-Methyl-4-phenoxyphenyl)-4-oxo-N-(1-(vinylsulfonyl)pyrrolidin-3-yl)-4,5-dihydro-3H-1-thia-3,5,8-triazaacenaphthylene-2-carboxamide] | 7.8 |
| C=CC(=O)N1C[C@H](NC(=O)c2sc3nccc4c3c2NC(=O)N4c2ccc(Oc3ccccc3)cc2)[C@@H](F)C1 [Example 543, N-((3S,4S)-1-Acryloyl-4-fluoropyrrolidin-3-yl)-4-oxo-5-(4-phenoxyphenyl)-4,5-dihydro-3H-1-thia-3,5,8-triazaacenaphthylene-2-carboxamide] | 7.5 |
| C=CC(=O)N1CCC[C@@H](NC(=O)c2sc3nccc4c3c2NC(=O)N4c2cccnc2C)C1 [Example 358, (R)—N-(1-Acryloylpiperidin-3-yl)-5-(2-methylpyridin-3-yl)-4-oxo-4,5-dihydro-3H-1-thia-3,5,8-triazaacenaphthylene-2-carboxamide] | 5.2 |
| O=C(N[C@@H]1CCCNC1)c1sc2nccc3c2c1NC(=O)N3c1ccc2sccc2c1 [Example 410, (R)-5-(Benzo[b]thiophen-5-yl)-4-oxo-N-(piperidin-3-yl)-4,5-dihydro-3H-1-thia-3,5,8-triazaacenaphthylene-2-carboxamide] | 5.0 |
| O=C(NC1CCCNC1=O)c1sc2nccc3c2c1NC(=O)N3c1ccc(Oc2ccccc2)cc1 (stereo not shown) [Example 458, 4-Oxo-N-(2-oxopiperidin-3-yl)-5-(4-phenoxyphenyl)-4,5-dihydro-3H-1-thia-3,5,8-triazaacenaphthylene-2-carboxamide] | 6.2 |
| C=CS(=O)(=O)N1CCC[C@@H](NC(=O)c2sc3nccc4c3c2NC(=O)N4c2ccc(Oc3ccccc3)cc2C)C1 (single isomer, unassigned) [Example 530, (R)-5-(*S)-(2-Methyl-4-phenoxyphenyl)-4-oxo-N-(1-(vinylsulfonyl)piperidin-3-yl)-4,5-dihydro-3H-1-thia-3,5,8-triazaacenaphthylene-2-carboxamide] | 8.0 |
| CN(C)CC(=O)N1CC[C@@H](NC(=O)c2sc3nccc4c3c2NC(=O)N4c2ccc(Oc3ccccc3)cc2)C1 [Example 425, (R)—N-(1-(2-(Dimethylamino)acetyl)pyrrolidin-3-yl)-4-oxo-5-(4-phenoxyphenyl)-4,5-dihydro-3H-1-thia-3,5,8-triazaacenaphthylene-2-carboxamide] | 7.3 |
| Cc1ncccc1N1C(=O)Nc2c(C(=O)N[C@@H]3CCCNC3)sc3nccc1c23 [Example 359, (R)-5-(2-Methylpyridin-3-yl)-4-oxo-N-(piperidin-3-yl)-4,5-dihydro-3H-1-thia-3,5,8-triazaacenaphthylene-2-carboxamide] | <5 |
| C=CC(=O)N1CCC[C@@H](NC(=O)c2sc3nccc4c3c2NC(=O)N4c2cccc(Cc3ccccc3)c2)C1 [Example 516, (R)—N-(1-Acryloylpiperidin-3-yl)-5-(3-benzylphenyl)-4-oxo-4,5-dihydro-3H-1-thia-3,5,8-triazaacenaphthylene-2-carboxamide] | 7.7 |

Same assay, conditions: unphosphorylated-BTK kinase domain, 60 minutes incubation, 50 nM Tracer 236; pIC50 = negative log of the IC50 in molar

| Structure (SMILES) | BTK_I_binding pIC50 |
| --- | --- |
| O=C(NC1CCOCC1)c1sc2nccc3c2c1NC(=O)N3c1ccc(Oc2ccccc2)cc1 [Example 909, 4-Oxo-5-(4-phenoxyphenyl)-N-(tetrahydro-2H-pyran-4-yl)-4,5-dihydro-3H-1-thia-3,5,8-triazaacenaphthylene-2-carboxamide] | 6.7 |
